How the values were obtained:
[1] = molecular target: T1, Oxysterols receptor LXR-alpha (Homo sapiens, UniProt Q13133); type: functional
T1 sequence (Q13133 whole entry): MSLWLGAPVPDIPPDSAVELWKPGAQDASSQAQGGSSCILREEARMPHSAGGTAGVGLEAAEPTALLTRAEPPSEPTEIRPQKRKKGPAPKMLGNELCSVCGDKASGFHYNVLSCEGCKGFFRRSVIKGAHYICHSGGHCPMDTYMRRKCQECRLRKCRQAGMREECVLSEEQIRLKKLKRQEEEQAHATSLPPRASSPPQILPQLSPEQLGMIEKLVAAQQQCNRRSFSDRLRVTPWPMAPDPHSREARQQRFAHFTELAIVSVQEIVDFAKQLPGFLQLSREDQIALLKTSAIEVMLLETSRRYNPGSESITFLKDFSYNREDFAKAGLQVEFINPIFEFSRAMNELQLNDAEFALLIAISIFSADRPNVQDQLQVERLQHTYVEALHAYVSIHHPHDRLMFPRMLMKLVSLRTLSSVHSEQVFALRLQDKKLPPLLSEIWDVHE

[2] = molecular target: T1, Oxysterols receptor LXR-alpha; type: functional; remark: listed apart in the source
[3] = molecular target: T2, Retinoic acid receptor beta (Homo sapiens, UniProt P10826); type: functional, cell-based
T2 sequence (P10826 whole entry): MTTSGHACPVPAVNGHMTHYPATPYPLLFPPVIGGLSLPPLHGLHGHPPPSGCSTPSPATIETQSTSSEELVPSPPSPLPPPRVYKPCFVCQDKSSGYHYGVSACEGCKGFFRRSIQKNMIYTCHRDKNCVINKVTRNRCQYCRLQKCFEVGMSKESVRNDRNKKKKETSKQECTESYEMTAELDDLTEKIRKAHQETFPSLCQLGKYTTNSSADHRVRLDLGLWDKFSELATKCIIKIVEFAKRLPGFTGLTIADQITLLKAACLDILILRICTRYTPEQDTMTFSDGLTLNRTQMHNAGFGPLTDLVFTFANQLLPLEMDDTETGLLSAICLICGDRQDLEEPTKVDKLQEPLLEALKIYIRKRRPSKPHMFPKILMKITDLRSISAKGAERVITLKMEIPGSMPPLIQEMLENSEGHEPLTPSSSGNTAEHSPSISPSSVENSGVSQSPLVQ

[4] = molecular target: T3, Retinoic acid receptor alpha (Homo sapiens, UniProt P10276); type: functional, cell-based
T3 sequence (P10276 whole entry): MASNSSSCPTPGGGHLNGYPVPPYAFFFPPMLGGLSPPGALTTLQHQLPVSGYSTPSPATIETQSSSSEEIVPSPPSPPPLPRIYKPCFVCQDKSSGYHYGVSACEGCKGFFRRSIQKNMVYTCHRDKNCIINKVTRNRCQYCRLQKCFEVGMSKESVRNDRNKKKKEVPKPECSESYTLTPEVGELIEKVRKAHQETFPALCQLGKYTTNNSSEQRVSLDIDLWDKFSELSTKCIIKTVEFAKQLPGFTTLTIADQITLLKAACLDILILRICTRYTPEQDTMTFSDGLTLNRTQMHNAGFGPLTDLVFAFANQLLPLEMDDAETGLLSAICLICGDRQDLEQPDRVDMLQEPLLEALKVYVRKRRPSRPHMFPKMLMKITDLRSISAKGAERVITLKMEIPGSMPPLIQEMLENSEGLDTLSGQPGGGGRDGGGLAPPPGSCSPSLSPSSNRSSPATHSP

[5] = molecular target: T4, Oxysterols receptor LXR-beta (Homo sapiens, UniProt P55055); type: functional
T4 sequence (P55055 whole entry): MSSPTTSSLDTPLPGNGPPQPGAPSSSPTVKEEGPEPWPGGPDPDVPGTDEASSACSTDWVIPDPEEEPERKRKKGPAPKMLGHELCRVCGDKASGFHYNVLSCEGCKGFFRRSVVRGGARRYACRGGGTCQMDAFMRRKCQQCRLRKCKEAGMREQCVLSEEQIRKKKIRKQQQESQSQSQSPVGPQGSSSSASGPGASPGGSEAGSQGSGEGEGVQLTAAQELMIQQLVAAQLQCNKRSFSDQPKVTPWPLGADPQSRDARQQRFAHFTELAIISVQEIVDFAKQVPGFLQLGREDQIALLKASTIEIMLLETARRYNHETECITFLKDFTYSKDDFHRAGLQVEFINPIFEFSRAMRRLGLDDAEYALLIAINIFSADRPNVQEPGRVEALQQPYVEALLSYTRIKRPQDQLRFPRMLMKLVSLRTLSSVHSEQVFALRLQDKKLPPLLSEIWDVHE

[6] = molecular target: T5, Retinoic acid receptor gamma (Homo sapiens, UniProt P13631); type: functional, cell-based
T5 sequence (P13631 whole entry): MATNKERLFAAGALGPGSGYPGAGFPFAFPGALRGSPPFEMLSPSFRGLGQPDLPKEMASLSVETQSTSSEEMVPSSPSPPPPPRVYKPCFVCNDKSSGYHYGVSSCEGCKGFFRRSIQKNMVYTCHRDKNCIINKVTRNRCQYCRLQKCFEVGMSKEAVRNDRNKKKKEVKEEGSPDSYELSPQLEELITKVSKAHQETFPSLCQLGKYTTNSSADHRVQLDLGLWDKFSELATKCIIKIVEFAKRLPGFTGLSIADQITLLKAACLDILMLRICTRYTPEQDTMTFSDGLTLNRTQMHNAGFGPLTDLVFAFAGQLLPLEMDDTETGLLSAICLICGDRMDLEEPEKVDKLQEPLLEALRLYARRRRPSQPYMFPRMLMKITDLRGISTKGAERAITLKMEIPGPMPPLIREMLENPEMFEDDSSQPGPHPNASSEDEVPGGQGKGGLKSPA

[7] = molecular target: T6, Thromboxane A2 receptor (Homo sapiens, UniProt P21731); type: functional, cell-based
T6 sequence (P21731 whole entry): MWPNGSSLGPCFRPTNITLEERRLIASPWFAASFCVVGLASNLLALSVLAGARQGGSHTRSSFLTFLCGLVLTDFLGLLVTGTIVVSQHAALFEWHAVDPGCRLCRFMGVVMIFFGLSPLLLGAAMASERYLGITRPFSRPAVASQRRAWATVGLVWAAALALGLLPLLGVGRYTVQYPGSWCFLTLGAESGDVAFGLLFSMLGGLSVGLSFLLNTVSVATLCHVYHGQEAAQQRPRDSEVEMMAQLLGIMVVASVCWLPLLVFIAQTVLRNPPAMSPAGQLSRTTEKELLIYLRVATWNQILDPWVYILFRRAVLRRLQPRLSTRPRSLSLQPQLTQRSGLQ

[8] = molecular target: T6, Thromboxane A2 receptor; type: functional
[9] = molecular target: D(1B) dopamine receptor (Homo sapiens, UniProt P21918)
Note: assay procedure not described here.

Sequence of D(1B) dopamine receptor (P21918 whole entry): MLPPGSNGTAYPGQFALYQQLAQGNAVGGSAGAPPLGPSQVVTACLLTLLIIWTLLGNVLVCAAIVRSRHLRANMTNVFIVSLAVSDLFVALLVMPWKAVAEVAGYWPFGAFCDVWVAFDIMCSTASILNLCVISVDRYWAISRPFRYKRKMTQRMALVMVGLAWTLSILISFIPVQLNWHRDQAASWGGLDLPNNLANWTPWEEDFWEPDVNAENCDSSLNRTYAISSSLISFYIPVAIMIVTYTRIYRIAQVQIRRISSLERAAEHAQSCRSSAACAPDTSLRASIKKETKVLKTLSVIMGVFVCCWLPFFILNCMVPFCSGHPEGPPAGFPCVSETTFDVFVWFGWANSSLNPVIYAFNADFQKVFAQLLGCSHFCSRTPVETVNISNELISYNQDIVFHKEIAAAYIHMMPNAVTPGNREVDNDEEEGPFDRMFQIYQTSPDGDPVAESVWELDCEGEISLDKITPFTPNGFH

In the case of `CC(C(=O)O)c1ccc2c(c1)[nH]c1ccc(Cl)cc12` (stereo not drawn) [CARPROFEN], the AC50 [1] was > 30 µM, the AC50 [2] was > 30 µM and the AC50 [3] was > 30 µM. The AC50 [4] was > 30 µM, the AC50 [5] was > 30 µM and the AC50 [6] was > 30 µM.

`C=CC[C@@H]1/C=C(\C)C[C@H](C)C[C@H](OC)[C@H]2O[C@@](O)(C(=O)C(=O)N3CCCC[C@H]3C(=O)O[C@H](/C(C)=C/[C@@H]3CC[C@@H](O)[C@H](OC)C3)[C@H](C)[C@@H](O)CC1=O)[C@H](C)C[C@@H]2OC` [TACROLIMUS ANHYDROUS] was tested, and the AC50 [7] was 10 µM and the AC50 [8] was > 30 µM.

`Cc1onc(-c2ccccc2)c1-c1ccc(S(N)(=O)=O)cc1` [VALDECOXIB] was tested, and the AC50 [9] was > 10 µM.

`CCN(CC)CCNC(=O)c1c(C)[nH]c(/C=C2\C(=O)Nc3ccc(F)cc32)c1C` [SUNITINIB] was tested, and the AC50 [1] was > 30 µM, the AC50 [2] was > 10 µM and the AC50 [3] was > 30 µM. For the same molecule, the AC50 [4] was > 3 µM, the AC50 [5] was > 30 µM and the AC50 [6] was > 30 µM.

In the case of `COc1cc2nccc(Oc3ccc(NC(=O)C4(C(=O)Nc5ccc(F)cc5)CC4)cc3)c2cc1OC` [CABOZANTINIB], the AC50 [7] was 5.52 µM and the AC50 [8] was > 30 µM.

`N[C@@H](CC(=O)N1CCn2c(nnc2C(F)(F)F)C1)Cc1cc(F)c(F)cc1F` [SITAGLIPTIN] was tested, and the AC50 [9] was > 10 µM.
